Test results reported in US9682966B2, “Kappa opioid ligands” (The Scripps Research Institute, priority 2012, dated 2017).

Target: kappa opioid receptor (OPRK1) (Homo sapiens (Human), UniProt P41145)
Test: OPRK1 antagonist assay (b-arrestin-2-TEV / b-lactamase reporter, EC80 U-50488 challenge)
Format: cell-based
Conditions: for IC50: OPRK1 antagonist assay vs EC80 U-50488

kappa opioid receptor (OPRK1), sequence (P41145 whole entry): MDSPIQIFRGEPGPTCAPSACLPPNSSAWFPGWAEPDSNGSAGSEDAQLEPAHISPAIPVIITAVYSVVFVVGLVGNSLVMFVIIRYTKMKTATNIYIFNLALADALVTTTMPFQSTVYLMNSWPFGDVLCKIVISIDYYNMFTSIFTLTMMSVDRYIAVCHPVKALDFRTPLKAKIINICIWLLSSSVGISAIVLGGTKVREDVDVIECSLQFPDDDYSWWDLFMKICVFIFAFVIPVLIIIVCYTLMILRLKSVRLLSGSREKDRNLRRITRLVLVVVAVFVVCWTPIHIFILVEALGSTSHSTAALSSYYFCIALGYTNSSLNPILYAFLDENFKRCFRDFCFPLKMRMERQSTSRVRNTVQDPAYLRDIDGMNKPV

| SMILES | IC50 | % inhib if other than 50% (% inhibition to which the printed IC50 value refers, if other than 50%) |
| --- | --- | --- |
| COC(=O)c1cc(NC(=O)c2cc(C)on2)cnc1N1CCC(NC2CCCCC2)CC1 [C34] | > 10 µM |  |
| COC(=O)c1cc(Br)cnc1N1CCCC(NC2CCCCC2)C1 (centres unmarked) [C14] | > 10 µM |  |
| COC(=O)c1cnc(N2CC[C@@H](NC3CCCCC3)[C@H](O)C2)c(Br)c1 [compound 132] | 4 µM |  |
| Cc1ccc2nc(N3CCC(NCC(C)C)CC3)c(-c3noc(C)n3)cc2c1 [compound 413] | 0.022 µM |  |
| Cc1cnc(N2CCC(NCC(C)C)CC2)c(-c2cc(C)no2)c1 [compound 381] | 0.86 µM |  |
| COC(=O)c1cc(Br)cnc1N1CCC(N(C(C)=O)C2CCCCC2)C(OC(C)=O)C1 (centres unmarked) [C48] | > 10 µM |  |
| COC(=O)c1cc(NC(=O)CN)cnc1N1CCC(NC2CCCCC2)CC1 [C41] | > 10 µM |  |
| COC(=O)c1cnc(N2CCC(NC3CCCCC3)CC2)c(NS(C)(=O)=O)c1 [C40] | > 10 µM |  |
| Cc1ccc(-c2nc(C)no2)c(N2CCC(NC3CCCCC3)C(CO)C2)n1 (centres unmarked) [compound 386] | 0.031 µM |  |
| Cc1ccc2nc(N3CCC(NC4CCOCC4)CC3)c(-c3ccc(C)nn3)cc2c1 [compound 441] | 0.392 µM |  |
| Cc1nc(-c2cc3cc(F)ccc3nc2N2CCC(NC3CCCCC3)CC2)no1 [compound 489] | 0.616 µM |  |
| Cc1cc(-c2noc(C)n2)c(N2CCC(NC3CCCC[C@@H]3O)CC2)nn1 (some centres unmarked) [compound 452] | 0.047 µM |  |
| Cc1cc(C)c2nc(N3CCC(NCC(C)C)CC3)c(-c3nc(C)no3)cc2c1 [compound 364] | 0.018 µM |  |
| Cc1ccc2nc(N3CCN(CC4CCCCC4)C(CO)C3)c(-c3nc(C)no3)cc2c1 (centres unmarked) [C76] | > 10 µM |  |
| O=Cc1cc(Br)cnc1N1CCC(NC2CCCCC2)C(O)C1 (centres unmarked) [C47] | > 10 µM |  |
| CCC(CC)NC1CCN(c2nc3ccc(C)cc3cc2-c2noc(C)n2)CC1 [compound 416] | 0.004 µM |  |
| Cc1ccc2nc(N3CCC(NC4CCC[C@@H]4O)CC3)c(-c3nc(C)no3)cc2c1 (some centres unmarked) [compound 372] | 0.015 µM |  |
| Cc1ccc2nc(N3CCC(NC4CCCCC4O)CC3)c(-c3ccc(C)nn3)cc2c1 (centres unmarked) [compound 451] | 0.094 µM |  |
| CO[C@@H]1CN(c2nc(C)ccc2-c2ccc(C)nn2)CC[C@@H]1NC1CCCCC1 [compound 427] | 4.6 µM |  |
| COC(=O)c1cnc(N2CCC(NC3CCCCC3)CC2)c(Br)c1 [C43] | 15 µM |  |
| COC(=O)c1cc(C#N)c(N2CCC(NC3CCCCC3)C(CO)C2)nc1C (centres unmarked) [C56] | > 20 µM |  |
| Cc1ccc2nc(N3CCC(NC(C)C)CC3)c(-c3nc(C)no3)cc2c1 [C73] | > 10 µM |  |
| CO[C@H]1CN(c2nc3ccc(C)cc3cc2-c2nc(C3CC3)no2)CC[C@H]1NC1CCCCC1 [compound 337] | 0.00073 µM |  |

| SMILES | IC50 | % inhib if other than 50% (% inhibition to which the printed IC50 value refers, if other than 50%) |
| --- | --- | --- |
| O=Cc1cc(Br)cnc1N1CCC(NC2CCCCC2)C(CO)C1 (centres unmarked) [C46] | > 10 µM |  |
| Cc1cc(Cl)nc(N2CCC(N[C@@H]3CCCC[C@H]3O)CC2)c1C#N [C11] | > 10 µM |  |
| Cc1ccc2nc(N3CCC(NC[C@H](C)O)CC3)c(-c3noc(C)n3)cc2c1 [compound 424] | 0.422 µM |  |
| CCCCOC(=O)c1cc(Br)cnc1N1CCC(NC2CCCCC2)CC1 [C32] | > 10 µM |  |
| COC(=O)c1cnc(N2CCC(NC3CCCCC3)CC2)c(NC(C)=O)c1 [C39] | > 10 µM |  |
| CCC(CC)NC1CCN(c2nc3ccccc3c(C)c2-c2noc(C)n2)CC1 [compound 449] | 0.129 µM |  |
| COC(=O)c1cnc(N2CCC(N(C(=O)OC(C)(C)C)C3CCCCC3)CC2)c(Br)c1 [C44] | > 10 µM |  |
| Cc1ccc2nc(N3CCC(NC4CCCC4)CC3)c(-c3noc(C)n3)cc2c1 [compound 414] | 0.009 µM |  |
| CO[C@@H]1CN(c2nc3ccc(C)cc3cc2-c2nc(C3CC3)no2)CC[C@@H]1NC1CCCC1 [compound 340] | 0.006 µM |  |
| CO[C@H]1CN(c2nc(C)ccc2-c2noc(C)n2)CC[C@H]1NC1CCCCC1 [compound 429] | 0.214 µM |  |
| Cc1ccc2nc(N3CCC(N[C@H](C)C(C)C)CC3)c(-c3noc(C)n3)cc2c1 [compound 524] | 0.057 µM |  |
| COC(=O)c1cc(Br)cnc1N1CCC(OC2CCCCC2O)CC1 (centres unmarked) [C50] | > 10 µM |  |
| Cc1ccc2nc(N3CCC(NC4CCC[C@@H]4O)CC3)c(-c3noc(C)n3)cc2c1 (some centres unmarked) [compound 418] | 0.05 µM |  |
| COC(=O)c1cc(C#N)c(N2CCC(NC3CCCCC3)C(O)C2)nc1C (centres unmarked) [C57] | > 20 µM |  |
| Cc1cnc(N2CCC(NC3CCOCC3)CC2)c(-c2nc(C)no2)c1 [compound 389] | 0.153 µM |  |
| CO[C@@H]1CN(c2ncc(C)cc2-c2noc(C)n2)CC[C@@H]1NC1CCCCC1 [compound 399] | 0.953 µM |  |
| CCc1noc(-c2cc3cc(C)ccc3nc2N2CC[C@H](NC3CCCCC3)[C@H](OC)C2)n1 [compound 330] | 0.0049 µM |  |
| Cc1cc(C)c2nc(N3CCC(NC4CCOCC4)CC3)c(-c3nc(C)no3)cc2c1 [compound 363] | 0.01 µM |  |
| Cc1ccc2nc(N3CCC(NC4CCCCC4CO)CC3)c(-c3nc(C)no3)cc2c1 (centres unmarked) [compound 368] | 0.007 µM |  |
| CO[C@@H]1CN(c2nc3ccccc3cc2-c2nc(C)no2)CC[C@@H]1NC1CCCCC1 [compound 329] | 0.0122 µM |  |
| CO[C@@H]1CN(c2nc3ccc(C)cc3cc2-c2nc(C)no2)CC[C@@H]1NC1CCCC1 [compound 347] | 0.032 µM |  |
| CO[C@@H]1CN(c2nc3ccc(C)cc3cc2-c2nc(C)no2)CC[C@@H]1NC1CCCCC1 [compound 315] | 0.004 µM |  |
| CO[C@H]1CN(c2nc3ccccc3nc2-c2nc(C)no2)CC[C@H]1NC1CCCCC1 [compound 333] | 0.0066 µM |  |

| SMILES | IC50 | % inhib if other than 50% (% inhibition to which the printed IC50 value refers, if other than 50%) |
| --- | --- | --- |
| Cc1ccc2nc(N3CCC(C)(NC4CCCCC4)CC3)c(-c3nc(C)no3)cc2c1 [C75] | > 10 µM |  |
| COC(=O)c1cc(C2CC2)cnc1N1CCC(NC2CCCCC2)CC1 [C15] | > 10 µM |  |
| CO[C@H]1CN(c2ncc(C)cc2-n2ccc(C)n2)CC[C@H]1NC1CCCCC1 [compound 366] | 0.019 µM |  |
| Cc1ccc2nc(N3CCC(NC4CCCCC4)C(CO)C3)c(-c3noc(C)n3)cc2c1 (centres unmarked) [compound 328] | 0.00072 µM |  |
| Cc1ccc2nc(N3CCC(NC4CCC4)CC3)c(-c3nc(C)no3)cc2c1 [compound 370] | 0.037 µM |  |
| Cc1ccc2nc(N3CCC(NC4CCCC4)CC3)c(-c3ccc(C)nn3)cc2c1 [compound 445] | 0.055 µM |  |
| COC(=O)c1cc(Br)cnc1N1CCC(NC2CCC(O)CC2)CC1 (centres unmarked) [C6] | > 10 µM |  |
| CO[C@@H]1CN(c2nc(C)ccc2-c2noc(C)n2)CC[C@@H]1NC1CCCCC1 [compound 430] | 1 µM |  |
| COC(=O)c1cc(Br)cnc1N1CCC(N[C@@H]2CCCCC[C@@H]2O)CC1 [C9] | > 10 µM |  |
| CCOC(=O)c1c(C(F)(F)F)ccnc1N1CCC(NC2CCCCC2)CC1 [C26] | > 10 µM |  |
| COC1CN(c2nc3ccccc3cc2-c2cccnn2)CCC1NC1CCCCC1 (centres unmarked) [compound 463] | 0.054 µM |  |
| Cc1noc(-c2cc3c(nc2N2CC[C@@H](NC4CCCCC4)[C@H](O)C2)CCCC3)n1 [compound 192] | 0.199 µM |  |
| Cc1ccc2nc(N3CCC(NC4CCCC[C@@H]4O)CC3)c(-c3ccc(C)nn3)cc2c1 (some centres unmarked) [compound 443] | 0.033 µM |  |
| COC(=O)c1cnc(N2CCC(NC3CCCCC3)CC2)c(N)c1 [C38] | > 10 µM |  |
| COC1CN(c2nc3ccc(C)cc3cc2-c2noc(C)n2)CCC1NC1CCCCC1 (centres unmarked) [compound 314] | 0.002 µM |  |
| Cc1cnc(-c2cc3ccccc3nc2N2CCC(NC3CCOCC3)CC2)o1 [C81] | > 10 µM |  |
| Cc1cc(C(=O)N(C)C)c(N2CCC(NC3CCCCC3)CC2)nn1 [compound 400] | 0.279 µM |  |
| Cc1cnc(N2CCC(NC3CCCCC3)CC2)c(-c2nc(C)no2)c1 [compound 388] | 0.02 µM |  |
| COC(=O)c1cc(Br)cnc1N1CCC(NC(=O)OC(C)(C)C)CC1 [C2] | > 10 µM |  |
| COC(=O)c1cc(C#N)c(N2CCC(NC3CCCCC3)CC2)nc1C [C55] | > 20 µM |  |
| COC(=O)c1cnc(N2CCC(NC3CCCCC3)C(CO)C2)c(Br)c1 (centres unmarked) [compound 102] | 13 µM |  |
| CO[C@H]1CN(c2ncc(C)cc2-c2nc(C3CC3)no2)CC[C@H]1NC1CCCCC1 [compound 398] | 0.018 µM |  |
| Cc1ccc2nc(N3CCC(NC4CCOC4)CC3)c(-c3ccc(C)nn3)cc2c1 (centres unmarked) [compound 458] | 0.44 µM |  |

| SMILES | IC50 | % inhib if other than 50% (% inhibition to which the printed IC50 value refers, if other than 50%) |
| --- | --- | --- |
| Cc1nc(-c2c(N3CCC(NC4CCCC[C@@H]4O)CC3)nc3ccccc3c2C)no1 (some centres unmarked) [compound 446] | 0.072 µM |  |
| Cc1ccc(-c2nc(C)no2)c(N2CCC(NC3CCCCC3)CC2)n1 [compound 387] | 0.089 µM |  |
| COC1CN(c2ncc(C)cc2-n2cc(C)cn2)CCC1NC1CCCCC1 (centres unmarked) [C92] | 58 µM |  |
| CC(=O)c1cc(C2CC2)cnc1N1CCC(NC2CCCCC2)C(CO)C1 (centres unmarked) [C63] | > 10 µM |  |
| CNC(=O)c1cc2cc(C)ccc2nc1N1CCC(NC2CCCCC2)C(CO)C1 (centres unmarked) [C89] | > 10 µM |  |
| O=Cc1cc(Br)cnc1N1CCC(NC2CCCCC2)CC1 [C45] | > 10 µM |  |
| COC1CN(c2nc3ccccc3cc2-c2ncc(C)o2)CCC1NC1CCCCC1 (centres unmarked) [C79] | > 10 µM |  |
| CO[C@H]1CN(c2nnc(C)cc2-c2nc(C3CC3)no2)CC[C@H]1NC1CCCCC1 [compound 456] | 0.006 µM |  |
| Cc1ccc2nc(N3CCC(CNC4CCCCC4)CC3)c(-c3nc(C)no3)cc2c1 [C84] | > 10 µM |  |
| CO[C@@H]1CN(c2nc(C)c(C)cc2-c2nc(C)no2)CC[C@@H]1NC1CCCC1 [compound 346] | 0.137 µM |  |
| Cc1cc(-c2nc(C3CC3)no2)c(N2CCC(NC3CCCCC3)CC2)nn1 [compound 457] | 0.024 µM |  |
| O=C(O)c1cc(Br)cnc1N1CCC(NC2CCCCC2)CC1 [compound 34] |  | 85% |
| CCN(CC)C(=O)c1cc(Br)cnc1N1CCC(NC2CCCCC2)CC1 [C18] | > 10 µM |  |
| c1cnnc(-c2cc3ccccc3nc2N2CCC(NC3CCCCC3)CC2)c1 [compound 464] | 0.087 µM |  |
| CO[C@@H]1CN(c2ncc(C)cc2-c2nc(C)no2)CC[C@@H]1NC1CCCCC1 [compound 341] | 0.076 µM |  |
| Cc1ccc2nc(N3CCC(NC4CCOC4)CC3)c(-c3noc(C)n3)cc2c1 (centres unmarked) [compound 432] | 0.022 µM |  |
| O=C(O)c1cc(Br)cnc1N1CCC(NC2CCCCC2)CC1 [C29] | > 10 µM |  |
| CCc1ccc(-c2cc3cc(C)ccc3nc2N2CCC(NC3CCCCC3)CC2)nn1 [compound 455] | 1.64 µM |  |
| Cc1ccc2nc(N3CCC(N)CC3)c(-c3nc(C)no3)cc2c1 [C82] | > 10 µM |  |
| Cc1cnc(N2CCC(NCC(C)C)CC2)c(-c2ccc(C)nn2)c1 [C93] | 10.2 µM |  |
